In patent US12187681B2 (Shanghai East Hospital, priority 2019, dated 2025):
Counter-ions that a name gives are not always drawn.

Columns and labels:
[1] = molecular target: T1, hERG (human ether-a-go-go related gene potassium channel, KCNH2) (Homo sapiens, UniProt Q12809); experiment: hERG channel whole-cell patch clamp (Ion Channel Activity Measurement); assay type: cell-based; conditions: human, room temperature; for inhibition at 1 μM: pH 7.4, 1 μM test article; for inhibition at 10 μM: pH 7.4, 10 μM test article
T1 construct: expressed in transfected cells; host or cells: HEK293
T1 sequence (Q12809 whole entry): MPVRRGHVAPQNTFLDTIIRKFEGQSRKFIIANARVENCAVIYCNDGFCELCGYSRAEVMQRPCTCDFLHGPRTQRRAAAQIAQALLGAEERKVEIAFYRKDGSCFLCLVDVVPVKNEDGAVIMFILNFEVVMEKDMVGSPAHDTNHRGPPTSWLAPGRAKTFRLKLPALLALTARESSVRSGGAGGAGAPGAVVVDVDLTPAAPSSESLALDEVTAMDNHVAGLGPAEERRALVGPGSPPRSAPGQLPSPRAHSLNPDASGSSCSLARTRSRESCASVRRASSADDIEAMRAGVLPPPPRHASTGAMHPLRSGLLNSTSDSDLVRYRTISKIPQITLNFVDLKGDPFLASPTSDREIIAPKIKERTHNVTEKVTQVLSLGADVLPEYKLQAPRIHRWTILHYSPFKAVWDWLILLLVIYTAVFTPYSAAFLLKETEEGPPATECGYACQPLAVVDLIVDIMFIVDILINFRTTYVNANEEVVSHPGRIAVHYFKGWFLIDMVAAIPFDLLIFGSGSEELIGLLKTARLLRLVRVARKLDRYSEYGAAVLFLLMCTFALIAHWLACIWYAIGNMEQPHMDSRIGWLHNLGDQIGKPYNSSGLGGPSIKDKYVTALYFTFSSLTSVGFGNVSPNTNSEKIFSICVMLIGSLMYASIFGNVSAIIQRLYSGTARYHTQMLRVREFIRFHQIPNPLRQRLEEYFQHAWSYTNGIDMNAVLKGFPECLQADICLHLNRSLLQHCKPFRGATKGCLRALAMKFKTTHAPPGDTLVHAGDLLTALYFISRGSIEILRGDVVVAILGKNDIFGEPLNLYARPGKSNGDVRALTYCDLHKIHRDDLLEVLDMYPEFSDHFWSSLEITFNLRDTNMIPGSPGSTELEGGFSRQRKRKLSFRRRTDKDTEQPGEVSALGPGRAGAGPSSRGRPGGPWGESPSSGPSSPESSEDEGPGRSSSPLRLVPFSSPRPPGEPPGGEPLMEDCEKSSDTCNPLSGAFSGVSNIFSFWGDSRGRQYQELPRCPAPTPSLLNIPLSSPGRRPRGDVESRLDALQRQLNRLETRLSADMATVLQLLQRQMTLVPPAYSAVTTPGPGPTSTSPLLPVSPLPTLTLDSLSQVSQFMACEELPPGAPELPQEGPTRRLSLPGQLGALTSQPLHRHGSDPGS
Protocol: HEK293 cell line expressing the human ERG (ether-a-go-go related gene) potassium channel (Potassium voltage-gated channel subfamily H member 2). cDNA strictly similar to GenBank accession number: NM_000238
(§1) Cells expressing channels were cultured in medium supplemented with 20% FBS in HAM'S F12 culture dish. Cells grew in a humidified incubator at 37° C. under 5% carbon dioxide. To passage cells, remove poor medium and rinse the cells once with PBS 1X. […] Place plate on a 37° C. warming incubator 5 min. As soon as cells are detached, add 5 ml of 37° C. complete medium. Draw cell suspension into a sterile pipet and homogenize cells gently to dissociate cells aggregates. Amplify or maintain the cells by seeding 2.5*105 cells in a 6 cm dish (final volume: 5 ml). To maintain electrophysiological performances, cell density must not exceed 80%. On the day before patch clamp experiment, 3*103 cells were seeded on coverslips in the 24-well plate and incubated at 37° C. in 5% carbon dioxide.
(§2) Glass pipette (BF150-86-10, Sutter Instruments) was made by puller (P97, Sutter Instruments). The glass pipette was manipulated using Micro-manipulator (Carm-C-S, MCI Instruments) under the microscope (AE31EF-INV, Motic). After touching the cell, a slight suction was applied to achieve high seal (GΩ). Fast capacitance (in pF) compensation was made after high seal was achieved; after achieving high seal, the membrane was broken, Cell capacitance (in pF) compensation was made from whole-cell capacitance compensation after the whole cell mode was achieved. No leak subtraction was made.
(§3) Cell was incubated with the test article for 5 minutes, or until the current reached a steady-state level. Multiple concentrations of test article were tested. The test articles were applied gradually from low to high concentration. The test and control solutions were flown into a recording chamber mounted on the stage of an inverted microscope via a gravity-fed solution delivery system. During the experiment, solutions were withdrawn from the recording chamber by vacuum aspiration. Each concentration was tested at multiple times. Each cell acted as its own control. All tests were performed at room temperature (23-25° C.).
hERG current was recorded under a holding potential at −80 mV and then depolarized to 30 mV for 2.5 seconds to activate the hERG channel. The peak tail currents were induced by a repolarizing pulse to −50 mV for 4 seconds. This voltage-clamp pulse protocol was performed continuously during the experiment. An interpulse interval of 10 seconds allowed recovery from inactivation. An interpulse of −50 mV test for 0.5 second before 30 mV depolarized step was included for leak current correction

[2] = molecular target: T2, CaV1.2 (L-type voltage-dependent calcium channel; CACNA1C, CACNB2, CACNA2D1) (Homo sapiens, UniProt Q13936); experiment: CaV1.2 channel whole-cell patch clamp (Ion Channel Activity Measurement); assay type: cell-based; conditions: human, room temperature; for inhibition at 5 min, 1 μM: pH 7.4, 1 μM test article; for inhibition at 5 min, 10 μM: pH 7.4, 10 μM test article, read-out: CaV 1.2 10 μM (ion-channel inhibition)
T2 construct: expressed in transfected cells; host or cells: CHO
T2 sequence (Q13936 1-2138 isoform Q13936-12): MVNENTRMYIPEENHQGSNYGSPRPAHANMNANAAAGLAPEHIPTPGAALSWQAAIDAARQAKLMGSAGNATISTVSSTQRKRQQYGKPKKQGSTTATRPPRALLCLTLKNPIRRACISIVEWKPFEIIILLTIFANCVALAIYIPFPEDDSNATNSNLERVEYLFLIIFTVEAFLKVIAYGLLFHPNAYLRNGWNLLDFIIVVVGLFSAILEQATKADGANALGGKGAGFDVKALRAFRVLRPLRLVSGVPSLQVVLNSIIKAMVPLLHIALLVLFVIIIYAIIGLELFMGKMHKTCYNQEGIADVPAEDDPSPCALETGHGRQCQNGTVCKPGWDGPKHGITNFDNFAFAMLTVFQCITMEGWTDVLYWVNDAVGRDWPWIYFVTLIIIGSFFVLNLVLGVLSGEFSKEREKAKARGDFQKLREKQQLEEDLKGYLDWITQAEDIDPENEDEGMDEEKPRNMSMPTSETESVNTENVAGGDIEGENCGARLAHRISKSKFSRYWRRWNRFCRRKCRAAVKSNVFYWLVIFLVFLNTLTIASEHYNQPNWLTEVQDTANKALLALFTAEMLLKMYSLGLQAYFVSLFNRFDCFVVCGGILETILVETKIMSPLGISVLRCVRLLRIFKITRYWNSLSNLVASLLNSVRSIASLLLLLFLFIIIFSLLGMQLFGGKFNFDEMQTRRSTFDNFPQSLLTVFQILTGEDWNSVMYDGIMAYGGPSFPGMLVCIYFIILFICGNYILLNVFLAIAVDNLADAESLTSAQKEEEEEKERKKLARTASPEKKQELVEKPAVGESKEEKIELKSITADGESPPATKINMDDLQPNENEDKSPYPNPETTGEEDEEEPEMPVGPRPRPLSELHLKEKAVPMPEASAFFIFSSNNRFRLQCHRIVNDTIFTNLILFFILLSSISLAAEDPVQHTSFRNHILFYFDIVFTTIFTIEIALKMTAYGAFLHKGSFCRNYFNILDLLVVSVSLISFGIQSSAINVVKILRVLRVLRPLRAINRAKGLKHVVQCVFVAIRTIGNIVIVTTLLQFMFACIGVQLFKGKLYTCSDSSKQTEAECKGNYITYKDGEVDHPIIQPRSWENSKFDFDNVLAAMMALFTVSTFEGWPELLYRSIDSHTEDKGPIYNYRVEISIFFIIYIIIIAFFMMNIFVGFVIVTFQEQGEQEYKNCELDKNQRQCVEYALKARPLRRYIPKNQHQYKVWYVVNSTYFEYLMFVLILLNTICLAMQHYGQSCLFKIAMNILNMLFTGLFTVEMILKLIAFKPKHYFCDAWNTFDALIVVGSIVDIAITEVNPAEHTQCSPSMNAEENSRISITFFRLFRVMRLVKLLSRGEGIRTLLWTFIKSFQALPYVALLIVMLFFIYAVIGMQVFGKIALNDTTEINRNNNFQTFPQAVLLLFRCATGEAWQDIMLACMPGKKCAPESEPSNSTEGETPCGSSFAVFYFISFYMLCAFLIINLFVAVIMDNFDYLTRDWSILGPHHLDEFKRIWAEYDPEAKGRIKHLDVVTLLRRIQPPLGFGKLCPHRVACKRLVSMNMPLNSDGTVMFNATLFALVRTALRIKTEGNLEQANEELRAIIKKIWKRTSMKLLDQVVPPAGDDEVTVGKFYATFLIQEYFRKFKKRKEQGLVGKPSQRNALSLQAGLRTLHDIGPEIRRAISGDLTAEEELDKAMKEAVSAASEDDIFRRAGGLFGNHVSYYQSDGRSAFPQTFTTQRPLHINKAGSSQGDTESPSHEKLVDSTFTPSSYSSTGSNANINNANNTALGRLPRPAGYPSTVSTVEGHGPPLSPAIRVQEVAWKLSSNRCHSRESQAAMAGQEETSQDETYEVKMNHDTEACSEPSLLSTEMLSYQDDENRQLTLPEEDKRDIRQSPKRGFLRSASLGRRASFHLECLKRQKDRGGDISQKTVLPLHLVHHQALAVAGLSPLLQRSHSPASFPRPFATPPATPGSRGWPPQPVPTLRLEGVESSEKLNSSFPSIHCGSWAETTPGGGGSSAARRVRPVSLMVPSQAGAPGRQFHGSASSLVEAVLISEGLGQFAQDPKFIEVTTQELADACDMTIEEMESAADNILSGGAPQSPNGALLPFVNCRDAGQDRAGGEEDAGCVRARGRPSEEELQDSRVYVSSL
T2 sequence (Q08289 1-605 isoform Q08289-2 partner): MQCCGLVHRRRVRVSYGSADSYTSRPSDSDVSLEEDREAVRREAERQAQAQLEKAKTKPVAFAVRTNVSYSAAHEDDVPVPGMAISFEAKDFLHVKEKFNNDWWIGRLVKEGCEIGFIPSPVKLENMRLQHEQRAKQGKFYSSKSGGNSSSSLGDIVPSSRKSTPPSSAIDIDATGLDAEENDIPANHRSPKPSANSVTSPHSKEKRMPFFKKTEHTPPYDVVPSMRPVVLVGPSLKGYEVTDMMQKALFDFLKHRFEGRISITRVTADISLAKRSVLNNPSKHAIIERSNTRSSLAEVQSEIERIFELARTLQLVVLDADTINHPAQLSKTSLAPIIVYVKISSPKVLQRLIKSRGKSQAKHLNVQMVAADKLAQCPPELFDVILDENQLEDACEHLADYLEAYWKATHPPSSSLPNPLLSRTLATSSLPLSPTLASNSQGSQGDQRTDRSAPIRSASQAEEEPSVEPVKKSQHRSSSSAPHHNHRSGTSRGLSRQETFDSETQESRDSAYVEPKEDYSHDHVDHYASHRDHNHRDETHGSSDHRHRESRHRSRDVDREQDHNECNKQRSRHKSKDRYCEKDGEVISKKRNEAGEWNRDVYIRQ
T2 sequence (P54289 25-1091 isoform P54289-2 partner limits assumed): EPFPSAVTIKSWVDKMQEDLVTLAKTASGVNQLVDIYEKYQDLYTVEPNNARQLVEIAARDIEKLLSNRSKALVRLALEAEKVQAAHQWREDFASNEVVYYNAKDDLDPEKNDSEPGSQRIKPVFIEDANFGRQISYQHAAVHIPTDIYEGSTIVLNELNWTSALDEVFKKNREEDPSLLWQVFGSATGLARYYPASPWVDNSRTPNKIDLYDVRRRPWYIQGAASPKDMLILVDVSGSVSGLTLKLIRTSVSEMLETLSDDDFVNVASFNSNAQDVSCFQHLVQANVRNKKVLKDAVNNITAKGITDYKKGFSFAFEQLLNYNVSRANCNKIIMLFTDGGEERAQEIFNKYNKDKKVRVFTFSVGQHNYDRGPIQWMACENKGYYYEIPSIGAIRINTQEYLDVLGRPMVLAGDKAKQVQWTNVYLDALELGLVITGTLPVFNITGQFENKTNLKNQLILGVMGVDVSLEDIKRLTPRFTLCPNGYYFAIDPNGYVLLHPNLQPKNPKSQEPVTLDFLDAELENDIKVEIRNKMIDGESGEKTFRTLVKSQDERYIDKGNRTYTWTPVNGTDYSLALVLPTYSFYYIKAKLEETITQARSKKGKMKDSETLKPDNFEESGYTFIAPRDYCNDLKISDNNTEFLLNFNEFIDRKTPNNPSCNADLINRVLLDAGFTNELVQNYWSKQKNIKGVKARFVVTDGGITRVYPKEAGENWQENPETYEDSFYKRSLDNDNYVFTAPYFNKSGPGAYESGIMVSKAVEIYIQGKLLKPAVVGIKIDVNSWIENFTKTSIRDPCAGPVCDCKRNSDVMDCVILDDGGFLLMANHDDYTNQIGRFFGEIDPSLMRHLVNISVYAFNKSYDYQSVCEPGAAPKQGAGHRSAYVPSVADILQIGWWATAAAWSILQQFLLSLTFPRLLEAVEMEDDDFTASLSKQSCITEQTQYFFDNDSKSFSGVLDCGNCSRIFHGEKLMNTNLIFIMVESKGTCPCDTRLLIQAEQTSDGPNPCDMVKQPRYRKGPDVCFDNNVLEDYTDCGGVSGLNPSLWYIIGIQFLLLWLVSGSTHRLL
T2 sequence (P54289 957-1103 partner limits assumed): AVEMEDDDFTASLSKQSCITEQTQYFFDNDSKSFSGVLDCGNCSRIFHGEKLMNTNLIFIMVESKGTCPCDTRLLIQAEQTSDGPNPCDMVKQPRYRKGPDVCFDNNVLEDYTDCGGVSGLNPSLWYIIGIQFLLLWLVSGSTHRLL
Protocol: • CHO cell line stably expressing human calcium channel, voltage-dependent, L type, • CACNA1C: cDNA strictly similar to GenBank accession number: NM_000719 • CACNB2: cDNA strictly similar to GenBank accession number: NM_000724 • CACNA2D1: cDNA strictly similar to GenBank accession number: NM_000722 Iks Channel Cell Line:
as §1
Bath solution: 140 mM TEA-C1, 2 mM MgCl2·6H2O, 10 mM CaCl2, 10 mM HEPES, 5 mM D-glucose, pH=7.4 with TEA-OH. Pipette solution: 120 mM CsCl, 1 mM MgCl2·6H2O, 10 mM HEPES, 10 mM EGTA, 0.3 mM Na2-GTP, 4 mM Mg-ATP, pH=7.2 with CsOH.
as §2, §3
Cav1.2 current was recorded under a holding potential at −80 mV and then depolarized to +10 mV for 0.3 seconds. This protocol was repeated at 20 s intervals to observe the effect of test articles on the peak of Cav1.2 current.

[3] = HEK293 cells expressing the human ERG potassium channel

SMILES | inhibition at 1 μM [1, 3] | inhibition at 10 μM [1, 3] | inhibition at 5 min, 1 μM [2] | inhibition at 5 min, 10 μM [2] | inhibition at 1 μM [1] | inhibition at 10 μM [1]
Cc1cc2ccccc2c(O)c1Cc1c(C)cc2ccccc2c1O [Compound A035, 2,2′-methylenebis(3-methylnaphthalen-1-ol)] | < 25% | 50 to 75% | < 25% | 75 to 100% | – | –
O=C(Nc1c(O)ccc2ccccc12)c1c(O)ccc2ccccc12 [Compound A044, 2-hydroxy-N-(2-hydroxynaphthalen-1-yl)-1-naphthamide] | < 25% | 25 to 50% | < 25% | < 25% | – | –
Oc1c(Cl)cc2ccccc2c1Cc1c(O)c(Cl)cc2ccccc12 [Compound A046, 1,1′-methylenebis(3-chloronaphthalen-2-ol)] | < 25% | < 25% | < 25% | < 25% | – | –
CC(C)(O)c1cc2ccccc2c(Cc2c(O)c(C(C)(C)O)cc3ccccc23)c1O [Compound A047, 1,1′-methylenebis(3-(2-hydroxypropan-2-yl)naphthalen-2-ol)] | < 25% | – | < 25% | 50 to 75% | – | –
Oc1c(F)cc2ccccc2c1Cc1c(O)c(F)cc2ccccc12 [Compound A049, 1,1′-methylenebis(3-fluoronaphthalen-2-ol)] | < 25% | 50 to 75% | < 25% | 50 to 75% | – | –
COc1cc2ccccc2c(Cc2c(O)c(OC)cc3ccccc23)c1O [Compound A050, 1,1′-methylenebis(3-methoxynaphthalen-2-ol)] | < 25% | < 25% | < 25% | < 25% | – | –
Oc1ccc2ccccc2c1Cn1c(O)nc2ccccc21 [Compound A056, 1-((2-hydroxynaphthalen-1-yl)methyl)-1H-benzo[d]imidazol-2-ol] | < 25% | < 25% | < 25% | 25 to 50% | – | –
O=C1Cc2ccccc2N1Cc1c(O)ccc2ccccc12 [Compound A057, 1-((2-hydroxynaphthalen-1-yl)methyl)indolin-2-one] | < 25% | < 25% | < 25% | < 25% | – | –
Oc1ccc2ccccc2c1Cn1nc(-c2ccccc2)cc1O [Compound A059] | – | – | < 25% | < 25% | < 25% | < 25%
CC(=O)N(c1c(O)ccc2ccccc12)c1c(O)ccc2ccccc12 [Compound A075, N,N-bis(2-hydroxynaphthalen-1-yl)acetamide] | < 25% | < 25% | < 25% | < 25% | – | –
CCOCOc1cccc2c1C(=O)CCC2 [Compound A076, 8-(ethoxymethoxy)-3,4-dihydronaphthalen-1(2H)-one] | < 25% | 50 to 75% | < 25% | 25 to 50% | – | –
Oc1cccc2c1C(c1c(O)ccc3ccccc13)CCC2 (stereo not drawn) [Compound A077, 1′,2′,3′,4′-tetrahydro-[1,1′-binaphthalene]-2,8′-diol] | < 25% | 50 to 75% | < 25% | < 25% | – | –
Oc1cccc2c1C(c1c(O)ccc3c1CCCC3)CCC2 (stereo not drawn) [Compound A077-2, 1′,2′,3′,4′,5,6,7,8-octahydro-[1,1′-binaphthalene]-2,8′-diol] | < 25% | 50 to 75% | < 25% | < 25% | – | –
Oc1cccc2c1C(c1c(O)ccc3ccccc13)=CC2 [Compound A078, 1-(4-hydroxy-1H-inden-3-yl)naphthalen-2-ol] | < 25% | < 25% | < 25% | < 25% | – | –
Oc1cccc2c1C(c1c(O)ccc3ccccc13)CC2 (stereo not drawn) [Compound A079, 1-(7-hydroxy-2,3-dihydro-1H-inden-1-yl)naphthalen-2-ol] | < 25% | 75 to 100% | < 25% | 50 to 75% | – | –
COc1ccc(COCc2ccc3ccccc3c2C(O)c2c(COCc3ccc(OC)cc3)ccc3ccccc23)cc1 [Compound A080, bis(2-(((4-methoxybenzyl)oxy)methyl)naphthalen-1-yl)methanol] | < 25% | < 25% | < 25% | 25 to 50% | – | –
CC(C)c1cc2ccccc2c(Cc2c(O)c(C(C)C)cc3ccccc23)c1O [Compound A081, 1,1′-methylenebis(3-isopropylnaphthalen-2-ol)] | < 25% | 50 to 75% | < 25% | 25 to 50% | – | –
CCN(CC)CCOc1ccc2ccccc2c1Cc1c(O)c(C)cc2ccccc12 [Compound A098, 1-((2-(2-(diethylamino)ethoxy)naphthalen-1-yl)methyl)-3-methylnaphthalen-2-ol] | 25 to 50% | 75 to 100% | < 25% | < 25% | – | –
O=C(O)c1ccc2ccccc2c1Cc1c(C(=O)O)ccc2ccccc12 [Compound A100, 1,1′-methylenebis(2-naphthoic acid)] | < 25% | < 25% | < 25% | < 25% | – | –
NC(=O)c1ccc2ccccc2c1Cc1c(C(N)=O)ccc2ccccc12 [Compound A101, 1,1′-methylenebis(2-naphthamide)] | < 25% | 50 to 75% | < 25% | < 25% | – | –
CCN(CC)CCOc1c(C(C)C)cc2ccccc2c1Cc1c(O)c(C(C)C)cc2ccccc12 [Compound A102, 1-((2-(2-(diethylamino)ethoxy)-3-isopropylnaphthalen-1-yl)methyl)-3-isopropylnaphthalen-2-ol hydrochloride Salt] | 50 to 75% | 75 to 100% | < 25% | 75 to 100% | – | –
O=C(O)c1ccc2ccccc2c1Cc1c(O)ccc2ccccc12 [Compound A106, 1-((2-hydroxynaphthalen-1-yl)methyl)-2-naphthoic acid] | < 25% | < 25% | < 25% | < 25% | – | –
CCN(CC)CCOc1c(C)cc2ccccc2c1Cc1c(O)c(C)cc2ccccc12 [Compound A108, 1-((2-(2-(diethylamino)ethoxy)-3-methylnaphthalen-1-yl)methyl)-3-methylnaphthalen-2-ol] | < 25% | < 25% | < 25% | 25 to 50% | – | –
Oc1ccc2ccccc2c1Cc1c(O)ccc2ccncc12 [Compound A109, 8-((2-hydroxynaphthalen-1-yl)methyl)isoquinolin-7-ol] | < 25% | 75 to 100% | 25 to 50% | 50 to 75% | – | –
CCN(CC)CCOc1ccc2ccccc2c1N(C)c1c(OC)ccc2ccccc12 [Compound A111-I-2, 2-(2-(diethylamino)ethoxy)-N-(2-methoxynaphthalen-1-yl)-N-methylnaphthalen-1-amine 2,2,2-trifluoroacetate] | 50 to 75% | 75 to 100% | < 25% | 25 to 50% | – | –
